# In patent publication US20110144079A1, “ANTIMICROBIAL SYSTEM” (priority 2008, published 2011):
# What was measured:
# [1] = test system: MRSA; test: Broth microdilution MIC/MBC; format: cell-based, methicillin-resistant S. aureus; settings: Staphylococcus aureus; for MBC: 99.9% killing; for MIC: 24 h at 37° C.
# Method in brief: (§1)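 NCCLS broth microdilution; MHB; salts 0.0000625–1% w/v, 2-fold; final inoculum 2×10^5 CFU/ml; 24 h, 37 °C, aerobic. MBC = 99.9% kill on MHA subculture of no-growth wells, 24 h.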
# [2] = test system: Methicillin Resistant Staphylococcus Aureus (MRSA); test: Kill kinetics, planktonic cell cultures; format: cell-based
# Excerpt: (§2) The kill kinetic data is provided in terms of the measured colony forming units per millilitre (CFU/mL) values, and is also provided graphically in FIGS. 9-11.
# [3] = test system: Escherichia Coli; test: Kill kinetics, planktonic cell cultures; format: cell-based
# Excerpt: as §2
# [4] = test system: Staphylococcus Epidermidis; test: Kill kinetics, planktonic cell cultures; format: cell-based
# Excerpt: as §2
# [5] = test system: K. aerogenes NCTC 7427; test: Broth microdilution MIC/MBC; format: cell-based; settings: Klebsiella aerogenes, NCTC7427; for MBC: K. aerogenes NCTC 7427, 99.9% killing; for MIC: K. aerogenes NCTC 7427, 24 h at 37° C.
# Method in brief: as §1
# [6] = test system: P. aeruginosa PA01; test: Broth microdilution MIC/MBC; format: cell-based; settings: Pseudomonas aeruginosa; for MIC: PA01, 24 h, P. aeruginosa PA01, 24 h at 37° C., read-out: MIC; for MBC: P. aeruginosa PA01, 99.9% killing
# Method in brief: as §1
# [7] = test system: E. coli NCTC 8196; test: Broth microdilution MIC/MBC; format: cell-based; settings: Escherichia coli, NCTC8196; for MBC: E. coli NCTC 8196, 99.9% killing; for MIC: E. coli NCTC 8196, 24 h at 37° C.
# Method in brief: as §1
# [8] = test system: S. epidermidis ATCC 12228; test: Broth microdilution MIC/MBC; format: cell-based; settings: Staphylococcus epidermidis, ATCC12228; for MBC: S. epidermidis ATCC 12228, 99.9% killing; for MIC: S. epidermidis ATCC 12228, 24 h at 37° C.
# Method in brief: as §1
# [9] = test system: S. epidermidis ATCC 35984; test: Broth microdilution MIC/MBC; format: cell-based; settings: for MIC: S. epidermidis ATCC 35984, 24 h at 37° C.; for MBC: ATCC35984, S. epidermidis ATCC 35984, 99.9% killing
# Method in brief: as §1
# [10] = test system: S. aureus ATCC 29213; test: Broth microdilution MIC/MBC; format: cell-based; settings: Staphylococcus aureus, ATCC29213; for MBC: S. aureus ATCC 29213, 99.9% killing; for MIC: S. aureus ATCC 29213, 24 h at 37° C.
# Method in brief: as §1
# [11] = test system: B. cenocepacia J2315; test: Broth microdilution MIC/MBC; format: cell-based; settings: Burkholderia cenocepacia; for MBC: B. cenocepacia J2315, 99.9% killing; for MIC: B. cenocepacia J2315, 24 h at 37° C.
# Method in brief: as §1
# [12] = test system: P. mirabilis NCTC 12442; test: Broth microdilution MIC/MBC; format: cell-based; settings: Proteus mirabilis, NCTC12442; for MBC: P. mirabilis NCTC 12442, 99.9% killing; for MIC: P. mirabilis NCTC 12442, 24 h at 37° C.
# Method in brief: as §1
# [13] = test system: C. tropicalis NCTC 7393; test: Broth microdilution MIC/MBC; format: cell-based; settings: Candida tropicalis, NCTC7393; for MBC: C. tropicalis NCTC 7393, 99.9% killing; for MIC: C. tropicalis NCTC 7393, 24 h at 37° C.
# Method in brief: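 Cultures grown overnight in MHB were standardised by OD550 to 1×10^8 CFU/ml, then diluted to a final 2×10^5 CFU/ml. This inoculum was added to imidazolium salt dilutions spanning 0.0000625–1% w/v in MHB and incubated aerobically for 24 h at 37 °C. Wells without growth were plated on MHA for 24 h to find the MBC.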
# [14] = test system: E-MRSA 15; test: Broth microdilution MIC/MBC; format: cell-based; settings: for MBC: E-MRSA 15, 99.9% killing; for MIC: E-MRSA 15, 24 h at 37° C.
# Method in brief: as §1
# [15] = Staphylococcus epidermidis, ATCC35984, 24 h
smiles,measurement,setting,value
"CCCCCCCCCCCCn1cc[n+](C)c1.[Cl-] [C12MIMCl, 1-dodecyl-3-methylimidazolium chloride]",MBC,[1],290 µM
same,MIC,[1],36 µM
same,colony forming units per millilitre,"[2]; 290 μM, 0 Minutes",2.08 × 10^8 CFU/mL
same,colony forming units per millilitre,"[2]; 290 μM, 5 Minutes",2.75 × 10^5 CFU/mL
same,colony forming units per millilitre,"[2]; 290 μM, 10 Minutes",0.00 CFU/mL
same,colony forming units per millilitre,"[2]; 290 μM, 20 Minutes",0.00 CFU/mL
same,colony forming units per millilitre,"[2]; 290 μM, 30 Minutes",0.00 CFU/mL
same,colony forming units per millilitre,"[2]; 290 μM, 45 Minutes",0.00 CFU/mL
same,colony forming units per millilitre,"[3]; 871 μM, 0 Minutes",1.13 × 10^8 CFU/mL
same,colony forming units per millilitre,"[3]; 871 μM, 5 Minutes",0.00 CFU/mL
same,colony forming units per millilitre,"[3]; 871 μM, 10 Minutes",0.00 CFU/mL
same,colony forming units per millilitre,"[3]; 871 μM, 20 Minutes",0.00 CFU/mL
same,colony forming units per millilitre,"[3]; 871 μM, 30 Minutes",0.00 CFU/mL
same,colony forming units per millilitre,"[3]; 871 μM, 45 Minutes",0.00 CFU/mL
same,colony forming units per millilitre,"[4]; 145 μM, 0 Minutes",6.25 × 10^7 CFU/mL
same,colony forming units per millilitre,"[4]; 145 μM, 5 Minutes",1.67 × 10^2 CFU/mL
same,colony forming units per millilitre,"[4]; 145 μM, 10 Minutes",0.00 CFU/mL
same,colony forming units per millilitre,"[4]; 145 μM, 20 Minutes",0.00 CFU/mL
same,colony forming units per millilitre,"[4]; 145 μM, 30 Minutes",0.00 CFU/mL
same,colony forming units per millilitre,"[4]; 145 μM, 45 Minutes",0.00 CFU/mL
same,MBC,[5],145 µM
same,MIC,[5],73 µM
same,MIC,[6],580 µM
same,MBC,[6],1160 µM
same,MBC,[7],73 µM
same,MIC,[7],73 µM
same,MBC,[8],145 µM
same,MIC,[8],36 µM
same,MIC,[9]; [15],36 µM
same,MBC,[9]; Staphylococcus epidermidis,73 µM
same,MBC,[10],36 µM
same,MIC,[10],18 µM
same,MBC,[11],580 µM
same,MIC,[11],290 µM
same,MBC,[12],1160 µM
same,MIC,[12],580 µM
same,MBC,[13],73 µM
same,MIC,[13],73 µM
same,MBC,[14],73 µM
same,MIC,[14],18 µM
"CCCCCCCCCCCCCCn1cc[n+](C)c1.[Cl-] [C14MIMCl, 1-tetradecyl-3-methylimidazolium chloride]",MBC,[1],66 µM
same,MIC,[1],16 µM
same,colony forming units per millilitre,"[2]; 40 μM, 0 Minutes",1.52 × 10^8 CFU/mL
same,colony forming units per millilitre,"[2]; 40 μM, 5 Minutes",1.78 × 10^5 CFU/mL
same,colony forming units per millilitre,"[2]; 40 μM, 10 Minutes",2.75 × 10^3 CFU/mL
same,colony forming units per millilitre,"[2]; 40 μM, 20 Minutes",3.33 × 10^2 CFU/mL
same,colony forming units per millilitre,"[2]; 40 μM, 30 Minutes",0.00 CFU/mL
same,colony forming units per millilitre,"[2]; 40 μM, 45 Minutes",0.00 CFU/mL
same,colony forming units per millilitre,"[3]; 265 μM, 0 Minutes",1.67 × 10^8 CFU/mL
same,colony forming units per millilitre,"[3]; 265 μM, 5 Minutes",1.07 × 10^4 CFU/mL
same,colony forming units per millilitre,"[3]; 265 μM, 10 Minutes",2.33 × 10^3 CFU/mL
same,colony forming units per millilitre,"[3]; 265 μM, 20 Minutes",0.00 CFU/mL
same,colony forming units per millilitre,"[3]; 265 μM, 30 Minutes",0.00 CFU/mL
same,colony forming units per millilitre,"[3]; 265 μM, 45 Minutes",0.00 CFU/mL
same,colony forming units per millilitre,"[4]; 40 μM, 0 Minutes",8.67 × 10^7 CFU/mL
same,colony forming units per millilitre,"[4]; 40 μM, 5 Minutes",0.00 CFU/mL
same,colony forming units per millilitre,"[4]; 40 μM, 10 Minutes",0.00 CFU/mL
same,colony forming units per millilitre,"[4]; 40 μM, 20 Minutes",0.00 CFU/mL
same,colony forming units per millilitre,"[4]; 40 μM, 30 Minutes",0.00 CFU/mL
same,colony forming units per millilitre,"[4]; 40 μM, 45 Minutes",0.00 CFU/mL
same,MBC,[5],66 µM
same,MIC,[5],33 µM
same,MIC,[6],264 µM
same,MBC,[6],264 µM
same,MBC,[7],33 µM
same,MIC,[7],33 µM
same,MBC,[8],33 µM
same,MIC,[8],7.7 µM
same,MIC,[9]; listed as 1-alkyl-3-methylimidazolium chlorides 14,7.75 µM
same,MIC,[9]; [15],7.7 µM
same,MBC,[9]; Staphylococcus epidermidis,33 µM
same,MBC,[10],66 µM
same,MIC,[10],16 µM
same,MBC,[11],264 µM
same,MIC,[11],132 µM
same,MBC,[12],530 µM
same,MIC,[12],264 µM
same,MBC,[13],132 µM
same,MIC,[13],66 µM
same,MBC,[14],66 µM
same,MIC,[14],16 µM
